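Test compounds were applied to cells in 96-well plates for 48 hours at 5 doses. GI50 is the concentration that inhibits growth by half. TGI: concentration producing complete growth inhibition.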
What was measured:
Experiment in all cases: NCI-60 cell line screen, 48 h
SK-MEL-28 melanoma = test system: SK-MEL-28 melanoma
SF-268 CNS = test system: SF-268 CNS
MOLT-4 leukemia = test system: MOLT-4 leukemia
NCI-H460 lung = test system: NCI-H460 lung
RXF 393 renal = test system: RXF 393 renal
OVCAR-4 ovarian = test system: OVCAR-4 ovarian
NCI/ADR-RES ovarian = test system: NCI/ADR-RES ovarian
COLO 205 colon = test system: COLO 205 colon
LOX IMVI melanoma = test system: LOX IMVI melanoma
NCI-H522 lung = test system: NCI-H522 lung

## O=C1C(NS(=O)(=O)c2ccccc2)=C(N(Cc2ccccc2)Cc2ccccc2)C(=O)c2ccccc21
SK-MEL-28 melanoma
  TGI: > 100 µM
SF-268 CNS
  TGI: > 100 µM
MOLT-4 leukemia
  TGI: > 100 µM
NCI-H460 lung
  TGI: > 100 µM
RXF 393 renal
  TGI: 67.8 µM
OVCAR-4 ovarian
  TGI: 59 µM
NCI/ADR-RES ovarian
  TGI: > 100 µM
COLO 205 colon
  TGI: > 100 µM
LOX IMVI melanoma
  TGI: > 100 µM

## O=[N+]([O-])c1ccc2[nH]c(O)c(N=NC(=S)Nc3ccccc3)c2c1
SK-MEL-28 melanoma
  TGI: 52.2 µM
MOLT-4 leukemia
  TGI: > 100 µM
NCI-H460 lung
  TGI: 14.5 µM
RXF 393 renal
  TGI: 26.4 µM
OVCAR-4 ovarian
  TGI: 29.2 µM
NCI/ADR-RES ovarian
  TGI: 8.62 µM
COLO 205 colon
  TGI: > 100 µM
LOX IMVI melanoma
  TGI: 24.6 µM

## CN(C)Cc1[nH]c2ccccc2c1C(=O)c1ccccc1
NCI-H522 lung
  TGI: > 100 µM
SK-MEL-28 melanoma
  TGI: > 100 µM
SF-268 CNS
  TGI: > 100 µM
MOLT-4 leukemia
  TGI: > 100 µM
NCI-H460 lung
  TGI: > 100 µM
OVCAR-4 ovarian
  TGI: > 100 µM
COLO 205 colon
  TGI: > 100 µM

## O=C1c2ccccc2C(=O)c2c(O)c(NCCNCCO)cc(O)c21
SK-MEL-28 melanoma
  TGI: 16.6 µM
SF-268 CNS
  TGI: 15.5 µM
MOLT-4 leukemia
  TGI: 10.4 µM
NCI-H460 lung
  TGI: 12.3 µM
RXF 393 renal
  TGI: 13.4 µM
OVCAR-4 ovarian
  TGI: 15.7 µM
LOX IMVI melanoma
  TGI: 15.5 µM

## N#Cc1c(N2CCOCC2)ncn(-c2ccc(Cl)cc2)c1=O
SK-MEL-28 melanoma
  TGI: > 100 µM
MOLT-4 leukemia
  TGI: > 100 µM
NCI-H460 lung
  TGI: > 100 µM
NCI/ADR-RES ovarian
  TGI: > 100 µM
COLO 205 colon
  TGI: > 100 µM
LOX IMVI melanoma
  TGI: > 100 µM

## Cc1cc(C#N)c(Nc2ccccc2[N+](=O)[O-])s1
NCI-H522 lung
  TGI: 57.6 µM
SK-MEL-28 melanoma
  TGI: > 100 µM
SF-268 CNS
  TGI: > 100 µM
MOLT-4 leukemia
  TGI: > 100 µM
NCI-H460 lung
  TGI: > 100 µM
RXF 393 renal
  TGI: 47 µM
OVCAR-4 ovarian
  TGI: > 100 µM
NCI/ADR-RES ovarian
  TGI: 53 µM
COLO 205 colon
  TGI: > 100 µM

## O=C1/C(=C/c2ccc(Cl)cc2)Sc2scc(-c3cccc([N+](=O)[O-])c3)[n+]21
NCI-H522 lung
  TGI: 2.01 µM
SK-MEL-28 melanoma
  TGI: 10.2 µM
SF-268 CNS
  TGI: 14.6 µM
MOLT-4 leukemia
  TGI: 3.9 µM
NCI-H460 lung
  TGI: 20.3 µM
RXF 393 renal
  TGI: 7.97 µM
OVCAR-4 ovarian
  TGI: 28.1 µM
COLO 205 colon
  TGI: 4.48 µM

## COc1ccc(C2C(Cl)C(=O)N2NC(=O)c2ccccc2O)cc1OC (stereo unspecified)
NCI-H522 lung
  TGI: > 100 µM
SK-MEL-28 melanoma
  TGI: > 100 µM
SF-268 CNS
  TGI: > 100 µM
MOLT-4 leukemia
  TGI: > 100 µM
NCI-H460 lung
  TGI: > 100 µM
RXF 393 renal
  TGI: > 100 µM
OVCAR-4 ovarian
  TGI: > 100 µM
LOX IMVI melanoma
  TGI: > 100 µM

## COc1cc2c(cc1OCCCCN1CCN(CCCCOc3cc4c(cc3OC)C(=O)N3CCC[C@H]3C=N4)CC1)N=C[C@@H]1CCCN1C2=O
NCI-H522 lung
  TGI: 1.49 µM
SF-268 CNS
  TGI: 16.5 µM
NCI-H460 lung
  TGI: > 32 µM
RXF 393 renal
  TGI: 0.507 µM
OVCAR-4 ovarian
  TGI: 12 µM
NCI/ADR-RES ovarian
  TGI: 16.5 µM
COLO 205 colon
  TGI: 0.0354 µM
LOX IMVI melanoma
  GI50: 0.0267 µM
  TGI: > 100 µM

## O=C1Nc2ccc(Br)cc2/C1=C/C(=O)c1ccccc1
NCI-H522 lung
  TGI: 5.17 µM
SK-MEL-28 melanoma
  TGI: 32.1 µM
SF-268 CNS
  TGI: 50.8 µM
MOLT-4 leukemia
  TGI: > 26.4 µM
NCI-H460 lung
  TGI: 36.9 µM
RXF 393 renal
  TGI: 5.45 µM
OVCAR-4 ovarian
  TGI: 30.5 µM
COLO 205 colon
  TGI: 3.97 µM
LOX IMVI melanoma
  TGI: 4.02 µM

## CC1(C)N=C(Oc2ccccc2)n2nccc2N1
NCI-H522 lung
  TGI: > 100 µM
SK-MEL-28 melanoma
  TGI: > 100 µM
SF-268 CNS
  TGI: > 100 µM
MOLT-4 leukemia
  TGI: > 100 µM
NCI-H460 lung
  TGI: > 100 µM
RXF 393 renal
  TGI: > 100 µM
OVCAR-4 ovarian
  TGI: > 100 µM
COLO 205 colon
  TGI: > 100 µM
LOX IMVI melanoma
  TGI: > 100 µM

## CC(=O)Oc1cc(S(=O)(=O)Nc2n[nH]c(N)n2)c(S)cc1Cl
NCI-H522 lung
  TGI: > 100 µM
SK-MEL-28 melanoma
  TGI: > 100 µM
MOLT-4 leukemia
  TGI: > 100 µM
NCI-H460 lung
  TGI: > 100 µM
OVCAR-4 ovarian
  TGI: > 100 µM
NCI/ADR-RES ovarian
  TGI: > 100 µM
COLO 205 colon
  TGI: > 100 µM
LOX IMVI melanoma
  TGI: > 100 µM

## COc1nc(OC)nc(Sc2ccc(Sc3ccc(Sc4nc(OC)nc(OC)n4)cc3)cc2)n1
NCI-H522 lung
  TGI: > 100 µM
SK-MEL-28 melanoma
  TGI: > 100 µM
SF-268 CNS
  TGI: > 100 µM
MOLT-4 leukemia
  TGI: > 100 µM
NCI-H460 lung
  TGI: > 100 µM
RXF 393 renal
  TGI: > 100 µM
OVCAR-4 ovarian
  TGI: > 100 µM
COLO 205 colon
  TGI: > 100 µM
LOX IMVI melanoma
  TGI: > 100 µM

Reference: PubChem BioAssay (NCI)
